The source of these data is patent US20140309171A1, “MARKER FOR BLOOD COAGULATION” (Universite Catholique De Louvain, priority 2011, published 2014).

Entries after “also recorded” stand apart in the source; their conditions may differ.

Type in all cases: cell-based
Test [1] deals with intracellular Ca2+ in human platelets. The test is described as follows: Cytosolic Ca2+ measurement in fluo-3-loaded platelets. Particulars: 10 μM STO-609, 0.1 U/ml thrombin, 1 mM extracellular Ca2+. The procedure: Platelets pelleted from the platelet-rich plasma were suspended in Ca^2+-free modified Tyrode's buffer and then incubated with 3 μM flou-3/acetoxymethyl ester (Santa Cruz Biotechnology) at 37° C. for 30 min. Probenecid 2.5 mM (Sigma-Aldrich) was added to the buffer throughout the experiments to prevent leakage of the dye. After 2 washings, fluo-3-loaded platelets were suspended in modified Tyrode's buffer at a concentration of 2 10^7 platelets/ml. They were then pre-incubated with 10 μM STO-609 in the presence of 1 mM extracellular Ca^2+ with stirring at 37° C. for 2 min before the addition of thrombin (0.1 U/ml). Fluorescence (excitation 505 nm, emission 530 nm) was measured with a spectrophotometer (AMINCO SPF500). Ca^2+ concentration as estimated as follows: Kd* (F−Fmin)/(Fmax−Fmin), where the Kd of Fluo-3 is ([…] at 37° C.). The minimal fluorescence (Fmin) is the fluorescence in the absence of Ca^2+ and Fmax is the fluorescence determined with ionomycin 1 μM.

Test [2] relates to TXB2 formation in human platelets. The test is described as follows: Thromboxane B2 assay in platelet supernatants. Particulars: 10 μM STO-609, 0.1 U/ml thrombin for 5 min. As for the experimental part: After 2 min pre-incubation with 10 μM STO-609 or DMSO, washed platelets were treated with 0.1 U/ml thrombin for 5 min. Negative controls corresponded to platelets activated by thrombin in the presence of 1 mM acetylsalicylic acid (ASA). Platelet suspensions were pelleted (quick speed), and TXB2 in the supernatants was assayed according to the manufacturers instructions (Enzo Life Sciences).

Test [3] deals with activated conformation of αIIbβ3 on human platelets. Description: Flow cytometry, PAC-1 binding. The conditions noted are these: 0.025 U/ml thrombin, 10 μM STO-609. The procedure:
Flow cytometric analysis was performed on a FACScan (Becton Dickinson). Washed human platelets (2·10^5 platelets/μl) were pre-incubated with DMSO/STO-609 for 2 min and then treated with or without thrombin (0.025 U/ml) in the presence of excessive amounts of FITC-conjugated monoclonal antibody (anti-CD62P (BD Biosciences) or PAC-1 (BD Biosciences)) at room temperature. The samples were then fixed at 4° C. for 30 min with 2% paraformaldehyde. The levels of P-selectin expression and PAC1 binding were expressed as the percentages of cells positive for anti-CD62P and PAC-1, respectively. The negative cut-off for each antibody was set using resting platelets that gave less than 5% of cells positive for binding of anti-CD62P or PAC-1. In addition to aggregation measurements, we examined by flow cytometry STO-609 effects on PAC-1 binding, an antibody specific for the activated conformation of αIIbβ3. Platelets were activated by 0.025 U/ml thrombin in the absence or presence of 10 μM STO-609.

The next test relates to washed human platelets. The test is described as follows: Platelet aggregation, light transmission (Chrono-Log Aggregometer). The procedure:
Washed human platelets (used in in vitro studies). Platelets were obtained from adult healthy volunteers in accordance with the Ethics Commission of our institution (Commission d'Ethique Biomédicale Hospitalo-Facultaire, Université catholique de Louvain). Whole blood was collected with butterfly needle 21G into Sodium Citrate 1:10 solution (S-monovette). Platelet-rich plasma (PRP) was obtained by 15 min centrifugation at 330 g. The platelets pellet was then washed in Tyrode modified buffer (135 mM NaCl, 12 mM NaHCO3, 1 mM Sodium Citrate, 2.9 mM KCl, 0.3 mM Na2HPO4, 1 mM MgCl2, 5 mM D-glucose, 10 mM Hepes, 0.35% bovine serum albumin (BSA), pH 7.4 at 37° C.) and resuspended to a density of 2.5 10^5 platelets/μl for the measurement of intracellular Ca^2+ or platelet aggregation. For Western Blot analysis, PRP with eptifibatide 4 μg/ml (Integriline, GlaxoSmithKline) and ectonucleotidase apyrase (grade I) 0.5 U/ml was layered over a density barrier of iodixanol (Optiprep®) that allowed the erythrocytes and leucocytes to pellet during centrifugation at 350 g for 15 min. The platelets, because of their small size, sediment much more slowly. After centrifugation at 800 g for 10 min, the resulting pellet was resuspended to a density of 2·10^5 platelets/μl in Tyrode modified buffer before treatment and lysis of samples.
Light transmission during thrombin-induced platelet aggregation in human and murine PRP was recorded with a Chrono-Log Aggregometer at 37° C., under stirring condition (1200 crpm). The platelet suspension was incubated with dimethyl sulfoxide (DMSO, vehicle) or STO-609 (10 μM, Tocris) for 2 min before the addition of the thrombin (+/−0.03 U/ml). CaCl2 2 mM was added prior to the agonists.
To evaluate the potential implication of CaMKKβ in platelet aggregation, washed human platelets were pre-incubated for 2 min with 10 μM STO-609, prior to treatment with thrombin or ADP.

The test system of test [4] is Ser79 acetyl-CoA carboxylase (ACC) phosphorylation in human platelets. Description: Western blot of phosphorylated (Ser79) ACC in human platelets. The conditions noted are these: 10 μM STO-609, 0.1 U/ml thrombin. (A western blot detects proteins with antibodies after separation by electrophoresis.)
The test system of test [5] is VASP Thr 278 phosphorylation. Description: Western blot of VASP Thr278 phosphorylation in human platelets. The conditions noted are these: 0.1 U/ml thrombin, pre-incubation with STO-609. As for the experimental part: Washed human platelets (used in in vitro studies). Platelets were obtained from adult healthy volunteers in accordance with the Ethics Commission of our institution (Commission d'Ethique Biomédicale Hospitalo-Facultaire, Université catholique de Louvain). Whole blood was collected with butterfly needle 21G into Sodium Citrate 1:10 solution (S-monovette). Platelet-rich plasma (PRP) was obtained by 15 min centrifugation at 330 g. The platelets pellet was then washed in Tyrode modified buffer (135 mM NaCl, 12 mM NaHCO3, 1 mM Sodium Citrate, 2.9 mM KCl, 0.3 mM Na2HPO4, 1 mM MgCl2, 5 mM D-glucose, 10 mM Hepes, 0.35% bovine serum albumin (BSA), pH 7.4 at 37° C.) and resuspended to a density of 2.5 10^5 platelets/μl for the measurement of intracellular Ca^2+ or platelet aggregation. […]
Proteins were separated as described (Miranda et al. 2010. J Clin Invest 103(6): 879-887). […] Bound antibodies were detected by enhanced chemiluminescence (Thermofisher). […] Band intensities were quantified by scanning and processing image intensities with the program ImageJ (1.33 for Mac OS X). The quantification of immunoblots presented in results was obtained after normalization using the internal loading control.

`O=C(O)c1ccc2c3c1cccc3c(=O)n1c3ccccc3nc21` [STO-609]: the “rise in Ca2+ concentration in response to thrombin” value in test [1] is on record as “did not modify”. Moreover, in test [2], the “thrombin-induced TXB2 formation” value is “not affect”. Further, in test [3], the “PAC-1 binding in response to thrombin” value is given as “significantly inhibited”. Further, the “platelet aggregation caused by ADP (effect in words)” value with washed human platelets (20 μM ADP, 10 μM STO-609) is on record as “not inhibited”. For the same compound, in the test on washed human platelets (0.025 U/ml thrombin + 10 μM STO-609, 2 min pre-incubation), the “thrombin-induced platelet aggregation, % of aggregation” value stood at 11±4%. Also, the “thrombin-induced platelet aggregation (effect in words)” value in the test on washed human platelets (0.025 U/ml thrombin, 10 μM STO-609) is “significantly inhibited; also recorded: prevents”. Also, the “AMPK activation, as judged by phosphorylation of downstream Ser79 acetyl-CoA carboxylase (ACC)” value in test [4] is “markedly reduced”. Further, the “thrombin-induced VASP phosphorylation on Thr 278, effect of pre-incubation” value in test [5] was “prevents”.
